Data as given in patent US11945826B2, “Hydroxypyridoxazepines as NRF2 activators” (GLAXOSMITHKLINE INTELLECTUAL PROPERTY DEVELOPMENT LIMITED, priority 2019, dated 2024).
Read-outs that look alike come from different tables or passages of the source.

Legend:
Rat PK Study = assay type: in vivo; conditions: plasma, nominal 1 mg/kg 30-minute intravenous infusion; for MRT: read-out: Rat Pharmacokinetics MRT; for clearance: read-out: Rat Pharmacokinetics Total Clearance
Method: All studies were conducted after review by the GSK Institutional Animal Care and Use Committee and in accordance with the GSK Policy on the Care, Welfare and Treatment of Laboratory Animals. This study was conducted with a crossover design on two study days with a one-day recovery period between each study day. At least three days prior to the start of the study, three rats received surgically implanted femoral vein, femoral artery, and gastric catheters for infusion of test molecules, blood sampling, and oral dose administration, respectively. Dose solutions were filtered prior to administration and the actual dosage administered to the animals was quantified. All PK parameters were calculated based on the actual dosage administered to each animal. Urine was collected from 0-24 h following iv administration from each animal for determination of renal clearance.
(§1) The compounds used in this study were the compound of Example 1, herein, and Compound A (the compound of Example 1 of WO 2018/109646).
(§2) The dose for intravenous administration was prepared in 20% Cavitron™ and 5% DMSO. The intravenous dose formulation was filtered through a 0.22-micron polytetrafluoroethylene (PTFE) filter prior to administration. The dose for oral solution administration was prepared in 6% Cavitron™ and 5% DMSO and was filtered through a 0.22-micron VWR PTFE filter prior to administration.
Each animal received a nominal dose of 1 mg/kg (4 mL/kg dose volume) as a 30-minute intravenous infusion on study day one. On study day two, each animal received a nominal dose of 2 mg/kg (16 mL/kg dose volume) as an oral gavage. Blood samples (approximately 0.11 mL each) were collected from the femoral artery catheter. […] Plasma was isolated from blood by centrifugation and a 30 μL aliquot was transferred to a non-heparinized tube, quick frozen on solid carbon dioxide and stored at approximately −80° C. until analyzed by liquid chromatography/tandem mass spectroscopy (LC/MS/MS) for test compound concentration.
(§3) Pharmacokinetic parameters for all in vivo PK studies were calculated using non-compartmental methods with Phoenix WinNonlin version 6.1.0 or 8.1.0. All parameters were calculated using actual blood sampling times and actual dosages for each animal. The extrapolated area under the curve (AUC0-inf) was determined using unweighted linear regression analysis of at least three log transformed concentrations visually assessed to be on the linear portion of the terminal elimination slope. Oral solution bioavailability was calculated in a non-crossover fashion using the mean intravenous dose and AUC0-inf values from the two intravenously dosed animals for the monkey PK study and in a crossover fashion for the rat PK study.

Monkey PK Study = assay type: in vivo; conditions: cynomolgus monkey; for MRT / clearance: male, plasma, nominal 1 mg/kg 60-minute intravenous infusion, cassette; for MRT: read-out: Monkey Pharmacokinetics MRT; for clearance: read-out: Monkey Pharmacokinetics Total Clearance
Method: All studies were conducted after review by the GSK Institutional Animal Care and Use Committee and in accordance with the GSK Policy on the Care, Welfare and Treatment of Laboratory Animals. A pre-study health examination that included a physical exam and complete blood count was performed on the animals prior to use on study. A catheter was temporarily placed in a cephalic or saphenous vein for sample collection on the study day. The animals were fasted overnight prior to dosing; food provided after the 4-hour blood sample was collected. The intravenous and oral solution pharmacokinetic studies were carried out using a non-crossover design; a total of four male cynomolgus monkeys were used, two per route of administration.
as §1
as §2, with “was prepared as a cassette of up to five test compounds in 20%” for “was prepared in 20%”, “was prepared as a cassette of up to five compounds in 6%” for “was prepared in 6%”
Each animal received a nominal dose of 1 mg/kg/compound (4 mL/kg dose volume) either as a 60-minute intravenous infusion or as an oral gavage. Blood samples (approximately 0.25 mL each) were collected from a cephalic or saphenous vein. Blood samples from animals that received the intravenous dose were collected prior to dosing and at target times of 15, 30, 45, 60 (before termination of the infusion), 62, 65, 75, 90, 120, 180, 240, 360, 480, 600, and 1440 minutes following the initiation of the intravenous infusion. For animals that received the oral dose, blood samples were collected prior to dosing and at target times of 5, 15, 30, 45, 60, 90, 120, 180, 240, 360, 480, 600, and 1440 minutes following oral gavage. Plasma was isolated from blood by centrifugation and a 30 μL aliquot was transferred to a non-heparinized tube, quick frozen on solid carbon dioxide and stored at approximately −80° C. until analyzed by liquid chromatography/tandem mass spectroscopy (LC/MS/MS) for test compound concentration.
as §3

[1] = tested on: Nrf2 (NQO1 activity in BEAS-2B cells); assay: BEAS-2B NQO1 MTT Assay; assay type: cell-based; conditions: Homo sapiens, NQO1 specific activity induction
From the text: NAD(P)H:quinone oxidoreductase 1 (NQO1), also called DT diaphorase, is a homodimeric FAD-containing enzyme that catalyzes obligatory NAD(P)H-dependent two-electron reductions of quinones and protects cells against the toxic and neoplastic effects of free radicals and reactive oxygen species arising from one-electron reductions. The transcription of NQO1 is finely regulated by Nrf2, and thus NQO1 activity is a good marker for Nrf2 activation. On day one, frozen BEAS-2B cells (ATCC) were thawed in a water bath, counted, and re-suspended at a concentration of 250,000 cells/mL. Fifty microliters of cells were plated in 384 well black clear-bottomed plates. Plates were incubated at 37° C., 5% CO2 overnight. On day two, plates were centrifuged and 50 nL of compound or controls were added to the cells. Plates were then incubated at 37° C., 5% CO2 for 48 hours. On day four, medium was aspirated from the plate and crude cell lysates were made by adding 13 μL of 1× Cell Signalling Technologies lysis buffer with 1 Complete, Mini, EDTA-free Protease Inhibitor Tablet (Roche) for each 10 mL of lysis buffer. After lysis plates were incubated for 20 minutes at room temperature. Two microliters of lysate were removed for use in Cell Titer Glo assay (Promega) and MTT cocktail was prepared (Prochaska et. al. 1998) for measurement of NQO1 activity. Fifty microliters of MTT cocktail was added to each well, plate was centrifuged, and analyzed on an Envision plate reader (Perkin Elmer) using Absorbance 570 nm label for 30 minutes. Product formation was measured kinetically and the pEC50 of NQO1 specific activity induction was calculated by plotting the change in absorbance (Delta OD/min) versus the log of compound concentration followed by 3-parameter fitting.
EC50s<1 nM (+++++), EC50s 1 nM-10 nM (++++), EC50s 10 nM-100 nM (+++), EC50s 100 nM-1 μM (++), EC50s 1 μM-10 μM (+).

[2] = read-out: Nrf2 BEAS-2B NQO1 EC50

MRT (Rat PK Study) [h] | clearance (Rat PK Study) [mL/min/kg] | MRT (Monkey PK Study) [h] | clearance (Monkey PK Study) [mL/min/kg] | fold improvement in mean residence time (MRT) versus Compound A (Monkey PK Study) [fold] | fold reduction in total clearance (CL) versus Compound A (Monkey PK Study) [fold] | Compound | EC50 [1, 2] [nM] | EC50 ([1]; 48 hours, read-out: EC50) [nM]
4 | 1.9 | 1.6 | 10.9 | – | – | CC[C@@H]1CN(Cc2cc([C@@H](CC(=O)O)c3ccc4c(nnn4C)c3C)ccc2C)Cc2ncccc2O1 [Compound A, reference compound] | 16 | –
6.5 | 5.2 | 18 | 0.41 | ~11 | ~27 | CC[C@@H]1CN(Cc2cc([C@@H](CC(=O)O)c3ccc4c(nnn4C)c3C)ccc2C)Cc2nc(O)ccc2O1 [Example 1, (R)-3-(1,4-dimethyl-1H-benzo[d][1,2,3]triazol-5-yl)-3-(3-(((R)-2-ethyl-7-hydroxy-2,3-dihydropyrido[2,3-f][1,4]oxazepin-4(5H)-yl)methyl)-4-methylphenyl)propanoic acid] | 13 | 10 to 100
